≈ marks a conversion by molar mass, not a printed value. Bridge positions count the residues as written; N and C are the ends. Peptide text beside a SMILES is read from it.
Tests used:
[1] = (§1) Selectivity index, ratio of HC50 for hemolytic activity in sheep RBC assessed as 50% hemolysis incubated for 30 mins by microplate reader method to MIC for antibacterial activity against Bacillus subtilis ATCC 6051 assessed as reduction in bacterial growth measured for 18 to 20 hrs by microbroth dilution method; type: toxicity; details: sheep red blood cells (erythrocytes), read-out: Selectivity Index
[2] = test system: Bacillus subtilis; assay: Antibacterial activity against Bacillus subtilis ATCC 6051 assessed as reduction in bacterial growth measured for 18 to 20 hrs by microbroth dilution method; type: functional; details: time 18-20 hrs
[3] = as §1, with “Pseudomonas aeruginosa” for “Bacillus subtilis”, “27853” for “6051”; type: toxicity; details: sheep red blood cells (erythrocytes), read-out: Selectivity Index
[4] = test system: Pseudomonas aeruginosa; assay: Antibacterial activity against Pseudomonas aeruginosa ATCC 27853 assessed as reduction in bacterial growth measured for 18 to 20 hrs by microbroth dilution method; type: functional; details: time 18-20 hrs
[5] = test system: Staphylococcus aureus; assay: Antibacterial activity against Staphylococcus aureus ATCC 29213 assessed as reduction in bacterial growth measured for 18 to 20 hrs by microbroth dilution method; type: functional; details: time 18-20 hrs
[6] = test system: Escherichia coli; assay: Antibacterial activity against Escherichia coli ATCC 25922 assessed as reduction in bacterial growth measured for 18 to 20 hrs by microbroth dilution method; type: functional; details: time 18-20 hrs
[7] = as §1, with “Staphylococcus aureus” for “Bacillus subtilis”, “29213” for “6051”; type: toxicity; details: sheep red blood cells (erythrocytes), read-out: Selectivity Index
[8] = Hemolytic activity in sheep RBC assessed as 50% hemolysis incubated for 30 mins by microplate reader method; type: toxicity, cell-based, Ovis aries, Erythrocyte; details: sheep red blood cells (erythrocytes)
[9] = Hemolytic activity in sheep RBC assessed as hemolysis incubated for 30 mins by microplate reader method; type: toxicity, cell-based, Ovis aries, Erythrocyte; details: sheep red blood cells (erythrocytes), read-out: Activity
[10] = as §1, with “Escherichia coli” for “Bacillus subtilis”, “25922” for “6051”; type: toxicity; details: sheep red blood cells (erythrocytes), read-out: Selectivity Index
[11] = test system: Erythrocyte; assay: Hemolytic activity in sheep RBC assessed as hemolysis at 1000 ug/ml incubated for 30 mins by microplate reader method; type: toxicity, cell-based, Ovis aries; details: 0.5 h, dose 1000 µg/ml
[12] = molecular target: T1, Trypsin (Homo sapiens, UniProt P07477+P07478+P35030); assay: Stability of compound assessed as trypsin (unknown origin)-mediated compound degradation measured at 5 mins by LCMS analysis; type: ADME, protein assay
[13] = molecular target: T1, Trypsin; assay: Stability of compound assessed as trypsin (unknown origin)-mediated compound degradation measured at 3 mins by LCMS analysis; type: ADME, protein assay; details: 0.05 h
[14] = molecular target: T1, Trypsin; assay: Stability of compound assessed as trypsin (unknown origin) mediated compound degradation measured at 4.5 hrs by LCMS analysis; type: ADME, protein assay; details: read-out: Drug degradation

Molecule	MIC [2]	MIC [4]	MIC [5]	MIC [6]	Stability [12]	Stability [13]	selectivity ratio at 30 min [1]	selectivity ratio at 30 min [3]	selectivity ratio at 30 min [7]	HC50 at 0.5 h [8]	hemolysis at 0.5 h [9]	selectivity ratio at 30 min [10]	Activity [11]	metabolised at 4.5 h [14]
H-KWKLFKRIGAVLKVL-NH2	64 µg/mL	8 µg/mL	4 µg/mL	4 µg/mL			> 16	> 125	> 250	> 1000 µg/mL	10%	> 250		
H-KWKLFKKIGAVLKVL-NH2	32 µg/mL	8 µg/mL	4 µg/mL	4 µg/mL		Unstable	22	86	173	690 µg/mL	10%	173		
CC[C@H](C)[C@H](NC(=O)[C@H](CCCN)NC(=O)[C@H](CCCN)NC(=O)[C@H](Cc1ccccc1)NC(=O)[C@H](CC(C)C)NC(=O)[C@H](CCCN)NC(=O)[C@H](Cc1c[nH]c2ccccc12)NC(=O)[C@@H](N)CCCN)C(=O)NCC(=O)N[C@@H](C)C(=O)N[C@H](C(=O)N[C@@H](CC(C)C)C(=O)N[C@@H](CCCN)C(=O)N[C@H](C(=O)N[C@@H](CC(C)C)C(N)=O)C(C)C)C(C)C							> 31	> 125	> 125	> 1000 µg/mL	10%	> 250		58%

More lines, main results first:

MIC [2]	MIC [4]	MIC [5]	MIC [6]	Stability [12]	Stability [13]	Molecule	selectivity ratio at 30 min [1]	selectivity ratio at 30 min [3]	selectivity ratio at 30 min [7]	HC50 at 0.5 h [8]	hemolysis at 0.5 h [9]	selectivity ratio at 30 min [10]	Activity [11]	metabolised at 4.5 h [14]
16 µg/mL	4 µg/mL	8 µg/mL	4 µg/mL			H-RWRLFRRIGAVLRVL-NH2	14	58	29	230 µg/mL		58	Toxic	
8 µg/mL (≈ 4.05 µM)	16 µg/mL (≈ 8.1 µM)	4 µg/mL (≈ 2.03 µM)	2 µg/mL (≈ 1.01 µM)	Stable		CC[C@H](C)[C@@H]1NC(=O)[C@H](CCCCN)NC(=O)[C@H](CCCCN)NC(=O)[C@H](Cc2ccccc2)NC(=O)[C@H](CC(C)C)NC(=O)[C@H](CCCCN)NC(=O)[C@H](Cc2c[nH]c3ccccc23)NC(=O)[C@H](CCCCN)NC(=O)[C@@H](N)CSSC[C@@H](C(N)=O)NC(=O)[C@H](CC(C)C)NC(=O)[C@H](C(C)C)NC(=O)[C@H](CCCCN)NC(=O)[C@H](CC(C)C)NC(=O)[C@H](C(C)C)NC(=O)[C@H](C)NC(=O)CNC1=O (H-CKWKLFKKIGAVLKVLC-NH2; disulfide 1-17)	> 125	> 63	> 250	> 1000 µg/mL	10%	> 500		
32 µg/mL	8 µg/mL	4 µg/mL	4 µg/mL			H-KWKLFKKIGAVLRVL-NH2	9	35	70	280 µg/mL	10%	70		
